Patent US10245249B2, “Pharmaceutical compositions comprising nitroxyl donors” (Cardioxyl Pharmaceuticals, Inc., priority 2013, dated 2019)

Legend:
[1] = In vitro stability (half-life) in phosphate buffered saline (PBS) pH 7.4; format: physicochemical; settings: pH 7.4, 5 μM, PBS pH 7.4, 37° C., read-out: T1/2 (minutes) PBS
Method: (§1) Certain compounds from Tables 1 and 2 and CXL-1020 were tested for their stability in phosphate buffered saline (PBS) and plasma. The assay system comprised (i) PBS, or plasma from rat, dog or human (at least 3 donors, male, pooled) at pH 7.4, and (ii) for tests conducted in plasma, an anticoagulant (sodium heparin or sodium citrate). Each test compound (5 μM) was incubated in PBS or plasma at 37° C. on a THERMOMIXER® with shaking. Three samples (n=3) were taken at each of seven sampling time points: 0, 10, 30, 60, 90, 180 and 360 minutes. The samples were immediately combined with 3 volumes (i.e., 3 times the volume of PBS or plasma) of acetonitrile containing 1% formic acid and an internal standard to terminate the reaction. AB SCIEX API 3000 LC-MS/MS analysis of the test compounds was performed without a standard curve. Half-lives (T1/2) of the test compounds were determined from graphs of the percent remaining values using the peak area response ratio. For compounds tested multiple times, the value provided in the Table represents an average of the replicate assays.

[2] = In vitro stability (half-life) in rat plasma; format: in vitro ADME; settings: rat plasma pH 7.4 with anticoagulant, 37° C.; for T1/2 (minutes) Rat: 5 μM; for half-life at 5 μM: male, rat, plasma, pH 7.4, 5 μM, read-out: T1/2 (minutes) Rat
Method: as §1

[3] = In vitro stability (half-life) in dog plasma; format: in vitro ADME; settings: dog plasma pH 7.4 with anticoagulant, 37° C.; for half-life at 5 μM: male, dog, plasma, pH 7.4, 5 μM, read-out: T1/2 (minutes) Dog
Method: as §1

[4] = HNO production determined via N2O quantification (GC headspace analysis); format: physicochemical; settings: PBS, 37° C.
Text: Nitrous oxide (N2O) is produced via the dimerization and dehydration of HNO, and is the most common marker for nitroxyl production (Fukuto et al., Chem. Res. Toxicol. 18:790-801 (2005)). […] Using either nitrous oxide gas or Angeli's salt (AS) as a standard, the relative amounts of N2O released from compounds of the disclosure was examined via gas chromatography (GC) headspace analysis.
A procedure for determining the relative amounts of N2O released from compounds of the disclosure is as follows. GC was performed on an Agilent gas chromatograph equipped with a split injector (10:1 splitting), microelectron capture detector, and a HP-MOLSIV 30 m×0.32 mm×25 μm molecular sieve capillary column. Helium was used as the carrier (4 mL/min) gas and nitrogen was used as the make-up (20 mL/min) gas. The injector oven and the detector oven were kept at 200° C. and 325° C., respectively. All nitrous oxide analyses were performed with the column oven held at a constant temperature of 200° C.
All gas injections were made using an automated headspace analyzer. Vial pressurization was 15 psi. The analyzer's sample oven, sampling valve, and transfer line were kept at 40° C., 45° C., and 50° C., respectively. The oven stabilization, vial pressurization, loop fill, loop equilibration, and sample injection times were 1.00 min., 0.20 min., 0.20 min., 0.05 min., and 1.00 min., respectively.
All determinations used a batch of nominal 20 mL headspace vials with volumes pre-measured for sample uniformity (actual vial volume varied by <2.0% relative standard deviation (n=6)). The average vial volume for the batch was determined from six randomly-selected vials by calculating the weight difference between the capped and sealed empty (i.e., air-filled) vial and the capped and sealed deionized water-filled vial using the known density of deionized water, then averaging. Blanks were prepared by sealing and capping two vials then purging each for 20 seconds with a gentle argon stream. Nitroxyl standards were prepared by sealing and capping four vials then purging each for 1 minute with a gentle stream, from a gas cylinder, of a 3000 ppm […].
CXL-1020 (N-hydroxy-2-methanesulfonylbenzene-1-sulfonamide) “standards” were prepared by, in duplicate, accurately weighing 10±0.5 mg of CXL-1020 and adding it to each 4 mL vial. Using an auto pipette, 1 mL of argon-purged anhydrous DMF (Sigma-Aldrich) was added to each 4 mL vial to form a CXL-1020 stock solution for each sample and the vials were capped and shaken and/or sonicated to insure complete dissolution upon visual observation. Using an auto pipette, 20 mL vials were charged with 5 mL of PBS (purged for at least 30 min. with argon prior to use), purged with argon for at least 20 sec., and sealed with a rubber septum. Using a 50 μL syringe, 50 μL of the CXL-1020 stock solution was injected into each 20 mL vial containing the PBS.
Samples were prepared as follows. In duplicate, 18±1 mg of each sample was accurately weighed into each 4 mL vial. Using an auto pipette, 1 mL of argon-purged anhydrous DMF was added to each 4 mL vial to form a sample stock solution for each sample and the vials were capped and shaken and/or sonicated to insure complete sample dissolution upon visual observation. Using an auto pipette, 20 mL vials were charged with 5 mL of PBS (purged for at least 30 min. with argon prior to use), purged with argon for at least 20 sec., and sealed with a rubber septum. The vials were equilibrated for at least 10 min. at 37° C. in a dry block heater. Thereafter, using a 50 μL syringe, 50 μL of a sample stock solution was injected into each 20 mL vial containing the PBS. The vials were then held at 37° C. in the dry block heater for a time period such that the sum of the time spent in the dry block heater plus the time spent in the automated headspace analyzer oven before sample injection equaled the desired incubation time. […]

[5] = In vitro stability (half-life) in human plasma; format: in vitro ADME; settings: male, human plasma pH 7.4 with anticoagulant, 37° C., read-out: T1/2 (minutes) Human
Method: as §1

Row | Structure (SMILES) | half-life at 5 μM [1] | T1/2 (minutes) Rat [2] | half-life at 5 μM [3] | Relative N2O Yield (90 minutes incubation) [4] | Relative N2O Yield (360 minutes incubation) [4] | half-life at 5 μM [2] | half-life at 5 μM [5] | T1/2 (minutes) Dog ([3]; 5 μM)
1 | Cc1noc(C)c1S(=O)(=O)NO [Compound 91, N-Hydroxy-3,5-dimethyl-1,2-oxazole-4-sulfonamide] | 211 min | 176 min | 54.4 min | – | – | – | – | –
2 | Cc1oncc1S(=O)(=O)NO [Compound 3, N-Hydroxy-5-methyl-1,2-oxazole-4-sulfonamide] | 98 min | – | 38 min | 45% | 56% | 37 min | 71 min | –
3 | O=S(=O)(NO)c1cccnc1 [Compound 26, N-Hydroxypyridine-3-sulfonamide] | 53 min | – | – | 73.5% | – | 29 min | 45 min | –
4 | CC(C)NC(=O)c1cc(S(=O)(=O)NO)cs1 [Compound 5, 4-(Hydroxysulfamoyl)-N-(propan-2-yl)thiophene-2-carboxamide] | 136 min | – | 28 min | 48% | 72% | 104 min | 24 min | –
5 | O=S(=O)(NO)c1cccc(Br)c1 [Compound 89, 3-Bromo-N-hydroxybenzene-1-sulfonamide] | 76 min | – | 34 min | – | – | 38.4 min | – | –
6 | CS(=O)(=O)c1cc(S(=O)(=O)NO)cs1 [Compound 8, N-Hydroxy-5-methanesulfonylthiophene-3-sulfonamide] | 42 min | – | 27 min | 77% | – | – | – | –
7 | O=S(=O)(NO)c1cccc(OC(F)(F)F)c1 [Compound 92, N-Hydroxy-3-(trifluoromethoxy)benzene-1-sulfonamide] | 58 min | 35.1 min | 19 min | 59% | – | 35 min | 40 min | 18.5 min
8 | Cc1cc(S(=O)(=O)NO)c(C(F)(F)F)o1 [Compound 7, N-Hydroxy-5-methyl-2-(trifluoromethyl)furan-3-sulfonamide] | 224 min | – | 56 min | 51% | – | – | – | –
9 | CS(=O)(=O)c1ccc(S(=O)(=O)NO)cc1 [Compound 93, N-Hydroxy-4-methanesulfonylbenzene-1-sulfonamide] | 68 min | – | – | 86% | – | 38 min | 35 min | –
10 | Cc1ccc(F)cc1S(=O)(=O)NO [Compound 90, 5-Fluoro-N-hydroxy-2-methylbenzene-1-sulfonamide] | 25.1 min | – | 21 min | 90% | – | 6.8 min | – | –
11 | O=S(=O)(NO)c1cccc(S(=O)(=O)NO)c1 [Compound 88, 1-N,3-N-Dihydroxybenzene-1,3-disulfonamide] | 38 min | – | 16 min | 53% | 100% | – | – | –
12 | Cc1ccc(C)c(S(=O)(=O)NO)c1 [Compound 49, N-Hydroxy-2,5-dimethylbenzene-1-sulfonamide] | 87 min | – | – | 42% | 68% | 13 min | – | –
13 | Cc1noc(C)c1S(=O)(=O)NO [Compound 27, N-Hydroxy-3,5-dimethyl-1,2-oxazole-4-sulfonamide] | – | 75 min | – | 35.5% | 66% | – | 99 min | –
14 | O=S(=O)(NO)c1ccc(F)c(Cl)c1 [Compound 87, 3-Chloro-4-fluoro-N-hydroxybenzene-1-sulfonamide] | 101 min | – | 24 min | 53% | 79% | 49 min | – | –
